# What was measured:
# [1] = tested on: parasite-infected cells (Theileria parva - TpMD409); assay: Cell viability XTT assay, TpMD409; assay type: cell-based, bovine; conditions: 72h
# Procedure: (§1) All infected bovine cell lines used in this study were previously described: TBL3 cells were derived from in vitro infection of the spontaneous bovine-B lymphosarcoma cell line, BL3, with Hissar stock of T.annulata. The TpMD409 lymphocyte cell line are infected with T. parva. The culture conditions of these cell lines were previously described by Moreau et al., 1999. Cells were cultured in RPMI 1640 (Gibco-BRL, Paisley, UK), supplemented with 10% heat-inactivated Fetal calf serum, 4mM L-Glutamine, 25mM HEPES, 10µM β-mercaptoethanol and 100µg/ml penicillin/streptomycin in a humidified 5%CO2 atmosphere at 37°C. HepG2, NIH/3T3 and MEF cells lines were cultured in DMEM (Gibco-BRL, Paisley, UK), supplemented with 10% heat-inactivated Fetal calf serum, 4mM L-Glutamine, 25 mM HEPES, 10µM β-mercaptoethanol and 100µg/ml penicillin/streptomycin in a humidified 5% CO2 atmosphere at 37°C. Cell numbers, as judged by Trypan Blue exclusion test, were determined by counting cells using a Countess automated cell counter (Invitrogen, CA, USA). The anti-parasite drug Buparvaquone (BW720c) was used at 200ng/ml for 72 hours. BW720c has no effect on growth of uninfected cells. […]
# TaPIN WT = target: T1, TaPIN WT (Theileria annulata, UniProt Q4UG71); assay: CyclinD1-Luciferase reporter assay, TaPIN WT in TBL3 cells; assay type: cell-based, T. annulata; conditions: parasite-infected cells (TBL3)
# T1 construct: expressed in transfected cells; host or cells: TBL3 (T. annulata-infected bovine B cells), electroporated with the pREV-HA-FLAG-RIL2 TaPIN plasmid
# Procedure: (§2) Bovine cells were transfected with the 5xHRE (Staller et al., 2003) or CyclinD1- (Wulf et al., 2001) Luciferase reporters, using electroporation (Neon kit, Invitrogen, CA, USA). Mouse cells were transfected using Lipofectamine 2000 (Invitrogen, CA, USA). Transfections efficiencies were normalized to Renilla activity by co-transfection of a pRL-TK Renilla reporter plasmid (Promega, Ref.: E6241). Luciferase assays were performed 36h post-transfection using the Dual-Luciferase Reporter Assay System (Promega, Ref: E1980) in a microplate luminometer. Relative luminescence was represented as the ratio Firefly/Renilla luminescence, compared with the corresponding empty vector control. The 5xHRE promoter-Luciferase construct was obtained from P Staller (Biotech Research & Innovation Centre, Copenhagen, […]).
# TaPIN Mutant A53P = target: T2, TaPIN Mutant A53P (Theileria annulata, UniProt Q4UG71, A53P); assay: CyclinD1-Luciferase reporter assay, TaPIN Mutant A53P in TBL3 cells; assay type: cell-based, T. annulata; conditions: parasite-infected cells (TBL3)
# T2 construct: expressed in transfected cells; host or cells: TBL3 (T. annulata-infected bovine B cells), electroporated with pRev-HA-FLAG-TaPIN A53P-RIL2
# From the text: After sequencing the TaPIN gene expressed in Buparvaquone-resistant infected cells, the Ala53Pro point mutation identified in said gene was introduced into the pRev-HA-FLAG-TaPIN WT-RIL2 plasmid using the set of primers of sequence SEQ ID NO:41 and SEQ ID NO:42 following a 3-step PCR protocol.
# as §2
# [2] = tested on: parasite load in infected TBL3 cells; assay: Western blot analysis of parasite actin (TaActin) in infected TBL3 cells; assay type: cell-based, T.annulata; conditions: 72h treatment
# TpPIN protein = assay: Immunoblot of TpPIN protein in nuclear and cytoplasmic fractions of T. parva-infected cells; assay type: cell-based; conditions: nuclear and cytoplasmic fractions of T. parva-infected TpM409 B cells
# Procedure: Cells were lysed in the following buffer: 5mM Tris HCL pH7.5, 40mM KCL, 2mM MgCL2, 0.5mM EDTA, 0.05mM Spermidine and Spermine, 0.1% NP-40, H2O. Lysates were incubated for 5min on ice and centrifuged for 10min at 5000rpm. The supernatant constitutes the Cytoplasmic fraction and the pellet constitutes the nuclear fraction.
# Total proteins were extracted with Laemmli lysis, sonicated: 15 secs ON / 30 secs OFF for 5 min, resolved on 10.5% acrylamide/bis-acrylamide SDS-PAGE gels and transferred to nitrocellulose membranes (Thermo Fisher Scientific, MA, USA) in transfer buffer. Protein transfer was assessed by Ponceau-red staining. Membranes were blocked in Tris-buffered saline pH7.4 containing 0.1% Tween-20 and 5% milk for 1 h at room temperature. Incubations with primary antibodies were carried out at 4°C overnight using antibody dilutions as manufacturer recommendations in Trisbuffered saline pH7.4, 0.05% Tween-20 and 5% milk. Following 1 h incubation with an anti-rabbit or anti-mouse peroxidase-conjugated antibody (Sigma, St Louis, MO, USA) at room temperature, proteins were detected by chemiluminescence (Thermo Fisher Scientific, MA, USA) following the manufacturer's instructions. […]
# HepG2 cells [3] = assay: Cell viability XTT assay, HepG2; assay type: cell-based, human; conditions: 72h
# Procedure: All infected bovine cell lines used in this study were previously described: TBL3 cells were derived from in vitro infection of the spontaneous bovine-B lymphosarcoma cell line, BL3, with Hissar stock of T.annulata. The TpMD409 lymphocyte cell line are infected with T. parva. The culture conditions of these cell lines were previously described by Moreau et al., 1999. Cells were cultured in RPMI 1640 (Gibco-BRL, Paisley, UK), supplemented with 10% heat-inactivated Fetal calf serum, 4mM L-Glutamine, 25mM HEPES, 10µM β-mercaptoethanol and 100µg/ml penicillin/streptomycin in a humidified 5%CO2 atmosphere at 37°C. HepG2, NIH/3T3 and MEF cells lines were cultured in DMEM (Gibco-BRL, Paisley, UK), supplemented with 10% heat-inactivated Fetal calf serum, 4mM L-Glutamine, 25 mM HEPES, 10µM β-mercaptoethanol and 100µg/ml penicillin/streptomycin in a humidified 5% CO2 atmosphere at 37°C. Cell numbers, as judged by Trypan Blue exclusion test, were determined by counting cells using a Countess automated cell counter (Invitrogen, CA, USA). The anti-parasite drug Buparvaquone (BW720c) was used at 200ng/ml for 72 hours. BW720c has no effect on growth of uninfected cells.
# 1×10^4 cells were plated in 96-well plates in triplicate and Buparvaquone, Juglone or PiB was added. […]
# HepG2 cells [4] = assay: Soft agar colony forming assay, HepG2; assay type: cell-based, human; conditions: number of colonies per plate
# Procedure: as §1, with “HepG2, NIH/3T3 and MEF cells lines were cultured in DMEM (Gibco-BRL, Paisley, UK), supplemented with 10% heat-inactivated Fetal calf serum, 4mM L-Glutamine, 25 mM HEPES, 10µM β-mercaptoethanol and 100µg/ml penicillin/streptomycin in a humidified 5% CO2 atmosphere at 37°C.” left out, “USA).” for “USA). The anti-parasite drug Buparvaquone (BW720c) was used at 200ng/ml for 72 hours. BW720c has no effect on growth of uninfected cells.”
# A two-layer soft agar culture system was used. […] Cultures were incubated in humidified 37°C incubators with an atmosphere of 5%CO2 in air, and control plates were monitored for growth using a microscope. At the time of maximum colony formation (10 days in culture), final colony numbers were counted manually after fixation a staining with 0.005% Crystal Violet (Sigma, Ref.: C3886).
smiles,measurement,setting,value
"CC(C)(C)C1CCC(CC2=C(O)C(=O)c3ccccc3C2=O)CC1 (stereo not shown) [Buparvaquone, 2-((4-tert-butylcyclohexyl)methyl)-3-hydroxy-1,4-naphthoquinone]",viability of parasite-infected cells,[1],decreased the viability
same,CyclinD1 promoter activation by TaPIN WT,TaPIN WT,reversed
same,CyclinD1 promoter activation induced by the TaPIN Mutant A53P,TaPIN Mutant A53P,no significant effect
same,"parasite load, parasite actin (TaActin)",[2],decreased parasite load
same,TpPIN protein,TpPIN protein,decreased
same,viability of HepG2 cells,HepG2 cells [3],reduce the viability
same,soft agar colony-forming potential of HepG2 cells,HepG2 cells [4],decreased

# — patent publication EP2845588A1, “PIN1 inhibitors for use in the prevention and/or treatment of theileriosis, and related applications” (Centre National de la Recherche Scientifique (CNRS), priority 2013, dated 2015)
